Results reported in US8796327B2, “Method for inhibiting production of cytokines of T helper cell type II and/or inhibiting production of chemokines using brazilin” (China Medical University, priority 2010, dated 2014).

Columns and labels:
IL-5 mRNA = experiment: Real-time PCR of IL-5 mRNA in EL-4 T lymphoma cells; assay type: cell-based, mouse; settings: for Expression level of IL-5 mRNA: PMA + cAMP stimulated EL-4 cells, corrected to HPRT
Procedure: (§1) Then, at a density of 5×10^5 counts/ml, the T lymphoma cells were bred in a six-well culture dish, and at the 0th minute, brazilin of different concentrations (0.3, 1, 3, 10, or 30 micromole (μM)) was added into the cell culture solution at an amount of 1 μl/ml-cell culture solution. Then, the cells were put into the incubator to be cultured therein. 30 minutes later, at an amount of 1 μl/ml-cell culture solution, 5 μg/ml PMA and cAMP at a 250 mmol concentration were added to the cell culture solution to stimulate the expression of IL-4 and IL-5 of the T lymphoma cells. During the process of cell culture, the trypan blue exclusion assay was employed to observe effect of the brazilin on the cell viability, results of which are shown in Table 1 and FIG. 1.
(§2) Expression of mRNA of IL-4, IL-5, GATA-3, c-maf, and T-bet were analyzed in a quantitative way through real-time polymerase chain reaction (PCR) by extracting RNA in the cells obtained in Experiment A (using an RNA purifying kit), converting the RNA into cDNA through reverse transcription, and using an ABI PRISM 7700 sequence detector (Applied Biosystems, Foster City, Calif., America) to analyze the gene expression of mRNA. The PCR was carried out under the following conditions: 50° C., 2 minutes; 95° C., 10 minutes; 60° C., 1 minute; then repeating this cycle forty times. A threshold cycle (or referred to as Ct) was used to represent the expression level of each gene, and an expression level of hypoxanthine-guanine phosphoribosy transferase (HPRT) genes of the endogenous control group was used for correction of the expression level of mRNA.

IFN-γ = experiment: ELISA of IFN-γ in bronochial alveolar lavage fluid, mice with asthma (OVA); assay type: in vivo, BALB/c mice; settings: for IFN-γ concentration (pico-gram/ml): i.p. or i.t., OVA-sensitized BALB/c mice
Procedure: (§3) In Example 2, mice with asthma were used to conduct in vivo experiments, and ovalbumin (OVA) was used as an allergen.
(§4) The mice were sensitized (or challenged) according to the steps shown in FIG. 9 (see Lee et al., Lentiviral-mediated GATA-3 RNAi decreases allergic airway inflammation and hyperresponsiveness. Molecular Therapy, 2008; 16:60-65, which is incorporated herein in its entirety by reference). First, 50 μg OVA (using 2 mg alumina (Alum, Alumlmuject, Pierce Chemical, Rockford, Ill., USA) as an adjuvant) was injected into six to eight-week-old BALB/c female mice (from National Laboratory Animal Center, Taiwan) by intraperitoneal injection (i.p.). At 0th, 14th, and 28th day, the mice were injected with OVA at the same dosage. Before the administration of OVA at the forty-first and the forty-second days, different dosages of brazilin (high dose: 430 μg/mice; low dose: 43 μg/mice) were administrated to the mice by intraperitoneal injection (i.p.) or intratracheal instillation (i.t.). During the fortieth to the forty-second days, 100 μg OVA was dissolved in 40 μl PBS, and was administrated to the mice by intranasal instillation (i.n.) (once everyday, for three days). At the forty-third day, airway hyperresponsiveness of the mice was observed. […]
(§5) In Experiment D, after 24 hours from the last administration of OVA into the noses of the mice, the mice were sacrificed, and the blood was collected from the orbital cavities of the mice. […] Cells obtained after the centrifugation were re-suspended in a 1 ml HBSS buffer solution, and the total cell number was counted with a hemocytometer.
(§6) The bronochial alveolar lavage fluid collected in Experiment E was centrifuged at 4° C. and with a revolution speed of 400 g for 10 minutes. After the supernatant was collected, the expression of eotaxin, IL-4, IL-5, and IFN-γ was analyzed with an ELISA kit (R&D Systems, Inc., USA). […]

GATA-3 mRNA = experiment: Real-time PCR of GATA-3 mRNA in EL-4 T lymphoma cells; assay type: cell-based, mouse; settings: for Expression level of GATA-3 mRNA: PMA + cAMP stimulated EL-4 cells, corrected to HPRT
Procedure: as §1, §2

eotaxin = experiment: ELISA of eotaxin in bronochial alveolar lavage fluid, mice with asthma (OVA); assay type: in vivo, BALB/c mice; settings: for Eotaxin concentration (pico-gram/ml): i.p. or i.t., OVA-sensitized BALB/c mice
Procedure: as §3, §4, §5, §6

IL-5 = experiment: ELISA of IL-5 in supernatant of EL-4 T lymphoma cells; assay type: cell-based, mouse; settings: EL-4 cells
Procedure: First, in an incubator containing 5 vol % of CO2 at 37° C., EL-4 mouse T lymphoma cells (commercially available from ATCC, Manassas, Va., America) were cultured in the DMEM culture medium (containing 10 wt % of thermally deactivated FBS), and were sub-cultured at a ratio of 1:3.
as §1, with “30 minutes later, at an amount of 1 μl/ml-cell culture solution, 5 μg/ml PMA and cAMP at a 250 mmol concentration were added to the cell culture solution to stimulate the expression of IL-4 and IL-5 of the T lymphoma cells.” left out
At 4° C., the T lymphoma cells obtained from Experiment A were centrifugally rotated at a rotational speed of 1000 rpm and at 4° C. for 5 minutes, and the supernatant was collected and analyzed for cytokines.
An enzyme-linked immunosorbent assay (ELISA) kit (commercially available from R&D Systems, Inc., America) was used to analyze the expression of IFN-γ, IL-4, IL-5, and eotaxin cytokines in the aforesaid supernatant, results of which are shown in Table 2, Table 3, FIG. 2, and FIG. 3.
In Experiment B and the following Experiment C, all experimental data are presented in form of “mean±standard deviation”, and statistical discrepancy was analyzed by means of the One-way ANOVA and Newman-keuls post-hoc tests, in which it is considered that there is statistical discrepancy if p<0.05.

For `Oc1ccc2c(c1)OC[C@]1(O)Cc3cc(O)c(O)cc3[C@H]21` [brazilin], the “expression of mRNA of IL-5” value (IL-5 mRNA; EL-4 cells, result in words) was “inhibited”, the “Expression level of IL-5 mRNA” value (IL-5 mRNA; brazilin 0.3 μM) was 1397 ± 172.2 and the “Expression level of IL-5 mRNA” value (IL-5 mRNA; brazilin 1 μM) was 1225 ± 47.23. The “Expression level of IL-5 mRNA” value (IL-5 mRNA; brazilin 3 μM) was 1009 ± 77.66, the “Expression level of IL-5 mRNA” value (IL-5 mRNA; brazilin 10 μM) was 926.2 ± 40.70 and the “Expression level of IL-5 mRNA” value (IL-5 mRNA; brazilin 30 μM) was 594.8 ± 252.9. The “effect on IFN-γ cytokine of Th1 cells” value (IFN-γ; BALB/c mice, result in words) was “no effect”, the “IFN-γ concentration (pico-gram/ml)” value (IFN-γ; High dose (430 μg/mice)) was 4.288 ± 0.868 pico-gram/ml and the “IFN-γ concentration (pico-gram/ml)” value (IFN-γ; Low dose (43 μg/mice)) was 3.598 ± 1.218 pico-gram/ml. For the same molecule, the “expression of mRNA of transcription factor GATA-3” value (GATA-3 mRNA; EL-4 cells, result in words) was “inhibited”, the “Expression level of GATA-3 mRNA” value (GATA-3 mRNA; brazilin 0.3 μM) was 3.960 ± 0.1234 and the “Expression level of GATA-3 mRNA” value (GATA-3 mRNA; brazilin 1 μM) was 3.036 ± 0.5622. The “Expression level of GATA-3 mRNA” value (GATA-3 mRNA; brazilin 3 μM) was 2.663 ± 0.6056, the “Expression level of GATA-3 mRNA” value (GATA-3 mRNA; brazilin 10 μM) was 1.812 ± 0.1538 and the “Expression level of GATA-3 mRNA” value (GATA-3 mRNA; brazilin 30 μM) was 1.434 ± 0.2530. For the same molecule, the “production of β-chemokine, eotaxin” value (eotaxin; BALB/c mice, result in words) was “inhibited”, the “Eotaxin concentration (pico-gram/ml)” value (eotaxin; High dose (430 μg/mice)) was 12.61 ± 1.334 pico-gram/ml and the “Eotaxin concentration (pico-gram/ml)” value (eotaxin; Low dose (43 μg/mice)) was 18.64 ± 3.784 pico-gram/ml. For the same molecule, the “expression of protein of IL-5 cytokine” value (IL-5; result in words) was “inhibited”, the “Concentration of IL-5 (pico-gram/ml)” value (IL-5; brazilin 0.3 μM + PMA + cAMP) was 2480 ± 515.9 pico-gram/ml and the “Concentration of IL-5 (pico-gram/ml)” value (IL-5; brazilin 0.3 μM, no PMA + cAMP) was 5.925 ± 3.462 pico-gram/ml. The “Concentration of IL-5 (pico-gram/ml)” value (IL-5; brazilin 1 μM + PMA + cAMP) was 2580 ± 402.8 pico-gram/ml, the “Concentration of IL-5 (pico-gram/ml)” value (IL-5; brazilin 1 μM, no PMA + cAMP) was 0.2422 ± 0.2422 pico-gram/ml and the “Concentration of IL-5 (pico-gram/ml)” value (IL-5; brazilin 3 μM + PMA + cAMP) was 2345 ± 392.6 pico-gram/ml. The “Concentration of IL-5 (pico-gram/ml)” value (IL-5; brazilin 3 μM, no PMA + cAMP) was 0.2422 ± 0.2422 pico-gram/ml, the “Concentration of IL-5 (pico-gram/ml)” value (IL-5; brazilin 10 μM + PMA + cAMP) was 1809 ± 337.9 pico-gram/ml and the “Concentration of IL-5 (pico-gram/ml)” value (IL-5; brazilin 10 μM, no PMA + cAMP) was 1.474 ± 0.9891 pico-gram/ml. The “Concentration of IL-5 (pico-gram/ml)” value (IL-5; brazilin 30 μM + PMA + cAMP) was 1292 ± 531.6 pico-gram/ml and the “Concentration of IL-5 (pico-gram/ml)” value (IL-5; brazilin 30 μM, no PMA + cAMP) was 0.0 ± 0.0 pico-gram/ml.
